In experiment [1] the target is T1, Human GPR40 (Homo sapiens, UniProt O14842). The experiment can be described thus: FLIPR assay, agonist-induced calcium mobilization. Format: cell-based. The arrangement: expressed in transfected cells. To be noted: GPR40/CHO NFAT BLA cells. How it is done: (§1) Human and mouse GPR40 stable cell-lines were generated in CHO cells stably expressing NFAT BLA (Beta-lactamase). A human GPR40 stable cell-line was generated in HER cells stably expressing the aequorin expressing reporter. The expression plasmids were transfected using lipofectamine (Life Technologies) following manufacturer's instructions. Stable cell-lines were generated following drug selection.
T1 sequence (O14842 whole entry): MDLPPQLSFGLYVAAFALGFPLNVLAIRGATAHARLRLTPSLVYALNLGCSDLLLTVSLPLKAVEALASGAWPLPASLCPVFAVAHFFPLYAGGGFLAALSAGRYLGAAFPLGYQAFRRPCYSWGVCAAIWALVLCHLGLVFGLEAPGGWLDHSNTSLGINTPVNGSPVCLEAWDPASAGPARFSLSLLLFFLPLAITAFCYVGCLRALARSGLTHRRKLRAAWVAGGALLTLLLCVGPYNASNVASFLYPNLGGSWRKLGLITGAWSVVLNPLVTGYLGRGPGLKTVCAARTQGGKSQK
FLIPR (Fluorimetric Imaging Plate Reader, Molecular Devices) assays were performed to measure agonist-induced calcium mobilization of the stable clones. For the FLIPR assay, one day before assay, GPR40/CHO NFAT BLA cells were seeded into black-wall-clear-bottom 384-well plates (Costar) at 1.4×10e4 cells/20 μL medium/well. The cells were incubated with 20 μl/well of the assay buffer (HMS, 0.1% BSA, 20 mM HEPES, 2.5 mM probenecid, pH 7.4) containing 8 μM fluo-4, AM, 0.08% pluronic acid at room temperature for 100 minutes. Fluorescence output was measured using FLIPR. Compounds were dissolved in DMSO and diluted to desired concentrations with assay buffer. 13.3 μL/well of compound solution was added.

Experiment [2] addresses T1, Human GPR40. The experiment can be described thus: Inositol Phosphate Turnover (IP1) Assay. It is filed as cell-based. To be noted: HEK cells stably expressing human GPR40, CisBio IP-One kit. The arrangement: expressed in transfected cells; host or cells: HEK cells (stably expressing the aequorin reporter). How it is done: as §1
The assay is performed in 384-well format. HEK cells stably expressing human GPR40 are plated at 15,000 cells per well in growth medium (DMEM/10% fetal calf serum). Cell plates are then incubated 16 hours at 37 degrees in a 5% CO2 incubator.
Measurement of Inositol Phosphate Turnover (IP1) is performed using the CisBio IP-One kit (Part number 62IPAPEB). After the 16 hour incubation, the cells are washed with HEPES buffer and 10 ul of stimulation buffer (prepared as described in the kit) is added to each well. In a separate plate, compounds are diluted in DMSO (400-fold over the final concentration in the assay well) and 25 nl is acoustically transferred to the appropriate well in the assay cell plate. The plates are then incubated for 60 minutes at 37 degrees. 10 ul of detection buffer (also prepared as described in the IP-One kit) is added to each well and the plates are incubated for 60 minutes in the dark. The plates are then read in a Perkin Elmer EnVision or equivalent reader able to measure FRET. Fluorescent ratio of emission at 665 and 620 nm is then converted to IP1 concentration by back calculating from an IP1 standard curve prepared at the time of the assay.

The structures appear in SMILES notation.

On to `CC1(C)CC(c2ccccc2C(F)(F)F)c2cc(COc3cc4c(cn3)[C@H]3[C@@H](C4)[C@@H]3C(=O)O)c(F)cc21` (single isomer, unassigned) [Example 22], for which the figures for the EC50 at Human GPR40 [1] and at Human GPR40 [2] were 11.9 nM and 12.5 nM, respectively. Taken in the same sequence, the figures for `CC1(C)CC(c2ccccc2C(F)(F)F)c2cc(COc3cc4c(cn3)[C@H]3[C@@H](C4)[C@@H]3C(=O)O)c(F)cc21` (single isomer, unassigned) [Example 23] were 19.9 nM and 16.6 nM. As to `O=C(O)[C@H]1[C@@H]2Cc3cc(OCc4ccc5c(c4)C(c4ccccc4C(F)(F)F)CCC5)ncc3[C@@H]21` (single isomer, unassigned) [Example 42], the EC50 (usually the concentration that produces a half-maximal response) at Human GPR40 [1] came to 17.6 nM; at Human GPR40 [2] it was 9.87 nM. Compound `O=C(O)[C@H]1[C@@H]2Cc3cc(OCc4cc5c(cc4F)C(n4cccn4)CC5c4ccccc4C(F)(F)F)ncc3[C@@H]21` (single isomer, unassigned) [Example 57] yielded an EC50 on Human GPR40 [2] of 1.78 nM. At Human GPR40 [2], `O=C(O)[C@H]1[C@@H]2Cc3cc(OCc4cc5c(cc4F)C(n4cccn4)CC5c4ccccc4C(F)(F)F)ncc3[C@@H]21` (single isomer, unassigned) [Example 58] showed an EC50 of 818 nM. In turn, `O=C(O)[C@H]1[C@@H]2Cc3cc(OCc4cc5c(cc4F)CCOC5c4ccccc4C(F)(F)F)ncc3[C@@H]21` (single isomer, unassigned) [Example 60] showed an EC50 on Human GPR40 [2] of 10.8 nM.

`O=C(O)[C@H]1[C@@H]2Cc3cc(OCc4cccc5c4CCC5c4ccccc4C(F)(F)F)ncc3[C@@H]21` (single isomer, unassigned) [Example 64] yielded an EC50 on Human GPR40 [2] of 154 nM.

`O=C(O)[C@H]1[C@@H]2Cc3cc(OCc4cccc5c4CCC5c4ccccc4C(F)(F)F)ncc3[C@@H]21` (single isomer, unassigned) [Example 65] showed an EC50 at Human GPR40 [2] of 124 nM. Consider `O=C(O)[C@H]1[C@@H]2Cc3cc(OCc4cc5c(cc4F)C(F)(F)CC5c4ccccc4C(F)(F)F)ncc3[C@@H]21` (single isomer, unassigned) [Example 69], for which the EC50 came out at 1.51 nM at Human GPR40 [1] and 8.85 nM on Human GPR40 [2]. The like results for `O=C(O)[C@H]1[C@@H]2Cc3cc(OCc4cc5c(cc4F)C(F)(F)CC5c4ccccc4C(F)(F)F)ncc3[C@@H]21` (single isomer, unassigned) [Example 70] were, in that order, 5.99 nM and 15.8 nM. Turning to `CC1(C)CNC(c2ccccc2C(F)(F)F)c2cc(COc3cc4c(cn3)[C@H]3[C@@H](C4)[C@@H]3C(=O)O)c(F)cc21` (single isomer, unassigned) [Example 72], the EC50 on Human GPR40 [1] stood at 5.25 nM; on Human GPR40 [2], 5.13 nM. Take `CC1(C)CC(c2ccccc2C(F)(F)F)c2cc(COc3cc4c(cn3)[C@@]3(C)[C@@H](C4)[C@@H]3C(=O)O)c(F)cc21` (single isomer, unassigned) [Example 75]: at Human GPR40 [2], the response was half-maximal at 157 nM (EC50).

For `O=C(O)[C@H]1[C@@H]2Cc3cc(OCc4cc5c(cc4F)CCC5c4ccccc4C(F)(F)F)ncc3[C@@H]21` (stereo partly drawn) [Example 20, (5aR,6S,6aS)-3-((6-fluoro-3-(2-(trifluoromethyl)phenyl)-2,3-dihydro-1H-inden-5-yl)methoxy)-5,5a,6,6a-tetrahydrocyclopropa[4,5]cyclopenta[1,2-c]pyridine-6-carboxylic acid], the EC50 on Human GPR40 [2] stood at 10.3 nM. The same measure, in the same setting: for `CC1(C)CC(c2ccccc2C(F)(F)F)c2cc(COc3cc4c(cn3)[C@@H]3[C@@H](C(=O)O)[C@@H]3C4(F)F)c(F)cc21` (stereo partly drawn) [Example 24, (5aR,6R,6aR)-5,5-difluoro-3-((6-fluoro-1,1-dimethyl-3-(2-(trifluoromethyl)phenyl)-2,3-dihydro-1H-inden-5-yl)methoxy)-5,5a,6,6a-tetrahydrocyclopropa[4,5]cyclopenta[1,2-c]pyridine-6-carboxylic acid] the value was 53 nM.

In the case of `CC1(C)OC(c2ccccc2C(F)(F)F)c2cc(COc3cc4c(cn3)[C@H]3[C@@H](C4)[C@@H]3C(=O)O)c(F)cc21` (stereo partly drawn) [Example 41, (5aR,6S,6aS)-3-((6-fluoro-1,1-dimethyl-3-(2-(trifluoromethyl)phenyl)-1,3-dihydroisobenzofuran-5-yl)methoxy)-5,5a,6,6a-tetrahydrocyclopropa[4,5]cyclopenta[1,2-c]pyridine-6-carboxylic acid], a half-maximal effect on Human GPR40 [2] (EC50) was put at 1.99 nM. Turning to `COc1ccc(F)c(C2CC(C)(C)c3cc(F)c(COc4cc5c(cn4)[C@H]4[C@@H](C5)[C@@H]4C(=O)O)cc32)c1` (stereo partly drawn) [Example 45, (5aR,6S,6aS)-3-((6-fluoro-3-(2-fluoro-5-methoxyhenyl)-1,1-dimethyl-2,3-dihydro-1H-inden-5-yl)methoxy)-5,5a,6,6a-tetrahydro-cyclopropa[4,5]cyclopenta [1,2-c]pyridine-6-carboxylic acid], the EC50 on Human GPR40 [2] stood at 223 nM.

At Human GPR40 [2], `CC1(C)CCN(c2ccccc2C(F)(F)F)c2c1ccc(COc1cc3c(cn1)[C@H]1[C@@H](C3)[C@@H]1C(=O)O)c2F` [Example 52, (5aR,6S,6aS)-3-((8-fluoro-4,4-dimethyl-1-(2-(trifluoromethyl)phenyl)-1,2,3,4-tetrahydroquinolin-7-yl)methoxy)-5,5a,6,6a-tetrahydrocyclopropa[4,5]cyclopenta[1,2-c]pyridine-6-carboxylic acid] showed an EC50 of 29.7 nM.

`COc1ccc(F)c(N2CC(C)(C)c3cc(F)c(COc4cc5c(cn4)[C@H]4[C@@H](C5)[C@@H]4C(=O)O)cc32)c1` [Example 56, (5aR,6S,6aS)-3-((5-fluoro-1-(2-fluoro-5-methoxyphenyl)-3,3-dimethylindolin-6-yl)methoxy)-5,5a,6,6a-tetrahydrocyclopropa[4,5]cyclopenta[1,2-c]pyridine-6-carboxylic acid] registered an EC50 on Human GPR40 [2] of 43.8 nM.

On Human GPR40 [2], `O=C(O)[C@H]1[C@@H]2Cc3cc(OCc4cc5c(cc4F)CCOC5c4ccccc4C(F)(F)F)ncc3[C@@H]21` (stereo partly drawn) [Example 59] yielded an EC50 of 97.3 nM.

With `O=C(O)[C@H]1[C@@H]2Cc3cc(OCc4cc5c(-c6ccccc6C(F)(F)F)cn(-c6ccccc6)c5cc4F)ncc3[C@@H]21` [Example 63, (5aR,6S,6aS)-3-((6-fluoro-1-phenyl-3-(2-(trifluoromethyl)phenyl)-1H-indol-5-yl)methoxy)-5,5a,6,6a-tetrahydrocyclopropa[4,5]cyclopenta[1,2-c]pyridine-6-carboxylic acid], the EC50 at Human GPR40 [2] turned out to be 28.2 nM. On Human GPR40 [2], `CC1(C)CC(C)(C)c2cc(COc3cc4c(cn3)[C@H]3[C@@H](C4)[C@@H]3C(=O)O)c(F)cc21` [Example 76, (5aR,6S,6aS)-3-((6-fluoro-1,1,3,3-tetramethyl-2,3-dihydro-1H-inden-5-yl)methoxy)-5,5a,6,6a-tetrahydrocyclopropa[4,5]cyclopenta[1,2-c]pyridine-6-carboxylic acid] yielded an EC50 of 17.3 nM.

`O=C(O)[C@H]1[C@@H]2Cc3cc(OCc4cc5c(cnn5-c5ccccc5C(F)(F)F)cc4F)ncc3[C@@H]21` [Example 77, (5aR,6S,6aS)-3-((5-fluoro-1-(2-(trifluoromethyl)phenyl)-1H-indazol-6-yl)methoxy)-5,5a,6,6a-tetrahydrocyclopropa[4,5]cyclopenta[1,2-c]pyridine-6-carboxylic acid] displayed an EC50 on Human GPR40 [2] of 7.08 nM. At Human GPR40 [2], `O=C(O)[C@H]1[C@@H]2Cc3cc(OCc4cc5c(ccn5Cc5ccccc5C(F)(F)F)cc4F)ncc3[C@@H]21` [Example 78, (5aR,6S,6aS)-3-((5-fluoro-1-(2-(trifluoromethyl)benzyl)-1H-indol-6-yl)methoxy)-5,5a,6,6a-tetrahydrocyclopropa[4,5]cyclopenta[12-c]pyridine-6-carboxylic acid] registered an EC50 of 195 nM.

In turn, `CN(C)[C@H]1C[C@H](c2ccccc2C(F)(F)F)c2cc(COc3cc4c(cn3)[C@H]3[C@@H](C4)[C@@H]3C(=O)O)c(F)cc21` [Example 79, (5aR,6S,6aS)-3-(((1S,3S)-1-(dimethylamino)-6-fluoro-3-(2-(trifluoromethyl)phenyl)-2,3-dihydro-1H-inden-5-yl)methoxy)-5,5a,6,6a-tetrahydrocyclopropa[4,5]cyclopenta[1,2-c]pyridine-6-carboxylic acid, or (5aR,6S,6aS)-3-(((1R,3R)-1-(dimethylamino)-6-fluoro-3-(2-(trifluoromethyl)phenyl)-2,3-dihydro-1H-inden-5-yl)methoxy)-5,5a,6,6a-tetrahydrocyclopropa[4,5]cyclopenta[1,2-c]pyridine-6-carboxylic acid] registered an EC50 on Human GPR40 [2] of 15.4 nM.
